Tests used:
[1] = In vitro antioxidant activity, FRAP assay; conditions: FeSO4 as standard; mean ± SD (n = 3)
Protocol: The total antioxidant capacity of the 3-arylcoumarin compounds was measured by the FRAP (the Ferric Reducing Ability of Plasma) assay of Benzie et al.[29] with slight modifications. This method is based on the reduction of colourless Fe(III)-TPTZ(2,4,6-Tris(2-pyridyl)-s-triazine) complex to coloured Fe(II)-TPTZ complex by the compounds. FRAP working solution (300 mmol/L acetate buffer, 10 mmol/L TPTZ, 20 mmol/LFeCl3) was ready to use. A hundred microlitres of the sample solution was added to 3 ml of FRAP reagent and then incubated at 37 °C for 15 min. The experiments were repeated for three times. The absorbance was measured at 593 nm to clarify the changes. The standard curve was drawn with FeSO4 as standard material, and the regression equation was obtained. With 1.0 mmol/L FeSO4 as standard, the antioxidant activity of the sample is expressed in millimoles of […] required to achieve the same absorbance.

BuChE from horse serum = BuChE from horse serum (Equus caballus, UniProt P81908); conditions: for IC50: read-out: IC50 value BuChE inhibitory activity, BuChE from horse serum, mean ± SD (n = 3)
Chain of BuChE from horse serum (P81908 whole entry): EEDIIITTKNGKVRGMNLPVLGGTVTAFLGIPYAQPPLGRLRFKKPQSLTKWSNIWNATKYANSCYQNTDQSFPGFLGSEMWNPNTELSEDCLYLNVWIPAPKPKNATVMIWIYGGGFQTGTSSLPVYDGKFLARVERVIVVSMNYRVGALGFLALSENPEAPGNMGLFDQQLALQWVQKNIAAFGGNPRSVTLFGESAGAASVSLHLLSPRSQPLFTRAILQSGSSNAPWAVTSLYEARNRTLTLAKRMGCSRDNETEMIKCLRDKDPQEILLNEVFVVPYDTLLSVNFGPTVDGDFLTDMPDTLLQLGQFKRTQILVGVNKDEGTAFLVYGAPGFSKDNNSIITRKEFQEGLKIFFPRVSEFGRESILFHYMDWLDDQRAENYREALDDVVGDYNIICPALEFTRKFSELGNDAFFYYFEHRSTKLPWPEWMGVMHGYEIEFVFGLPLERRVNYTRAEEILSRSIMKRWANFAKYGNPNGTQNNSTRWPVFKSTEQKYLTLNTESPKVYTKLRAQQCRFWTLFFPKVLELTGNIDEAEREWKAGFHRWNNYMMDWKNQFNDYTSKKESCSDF
Protocol: (§1) The anticholinesterase activity of the 3-arylcoumarin compounds was determined by the method of Ellman et al.[25] with slight modifications. AChE inhibitory activities were determined by AChE from electric eel (Macklin). BuChE inhibitory activities were determined by BuChE from horse serum (Aladdin). To a 10 ml tube, 2.65 ml of phosphate buffer solution (0.1 M, pH = 8.0), 100 µL of 5,5-dithiobis-2-nitrobenzoic acid (0.75 mM in 0.1 M phosphate buffer solution, pH = 8.0) were added sequentially, 50 µL AChE solution (0.2 U/mL in 0.1 M phosphate buffer solution, pH = 8.0), 100 µL of different concentrations of the sample solution, shaken well, and incubated at 37 °C for 5 min. Then 100 µL of substrate (1.5 mM in 0.1 M phosphate buffer solution, pH = 8.0) were added, shaken well, and incubated at 37 °C for 20 min. After the reaction was completed, 1 ml of sodium lauryl sulphate (4%, SDS in water) was added. […] Determination of the inhibitory activity of BuChE is similar. The sample blank group replaced the substrate with PBS, and the blank group replaced the sample solution with a solvent. The sample solution was set to five concentration gradients and the experiment was repeated three times. […] Cholinesterase inhibitory effect (%)=[A0−(A1−A2)]/A0×100% where A0 is the absorbance of blank group; A1 is the absorbance of sample group; A2 is the absorbance of sample blank group.

MAO-B = biological target: T1, MAO-B (Rattus norvegicus, UniProt P19643); assay: In vitro monoamine oxidase inhibitory activity (Holt method, crude enzyme from rat liver); type: biochemical; conditions: crude enzyme from Wistar rat liver; mean ± SD (n = 3)
T1 construct: The crude enzyme was extracted from the liver of 200–250 g of Wistar rats; from tissue; host or cells: Wistar rat liver, crude enzyme extract
T1 sequence (P19643 1-520): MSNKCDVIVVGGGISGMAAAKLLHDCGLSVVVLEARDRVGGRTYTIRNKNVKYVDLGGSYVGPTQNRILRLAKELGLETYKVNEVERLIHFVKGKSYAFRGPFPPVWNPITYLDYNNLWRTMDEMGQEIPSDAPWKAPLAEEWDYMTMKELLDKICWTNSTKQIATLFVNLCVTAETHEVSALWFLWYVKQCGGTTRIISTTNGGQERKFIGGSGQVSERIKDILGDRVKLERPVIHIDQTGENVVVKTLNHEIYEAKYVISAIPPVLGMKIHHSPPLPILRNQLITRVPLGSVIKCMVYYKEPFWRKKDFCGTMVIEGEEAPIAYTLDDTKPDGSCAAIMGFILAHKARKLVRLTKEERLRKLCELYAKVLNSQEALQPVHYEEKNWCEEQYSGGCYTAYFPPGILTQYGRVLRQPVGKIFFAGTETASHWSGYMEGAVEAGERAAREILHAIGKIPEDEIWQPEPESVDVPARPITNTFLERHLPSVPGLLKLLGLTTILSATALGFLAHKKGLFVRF
Protocol: The MAO inhibitory activity of the 3-arylcoumarin compounds was determined by the method of Holt et al.[26] with slight modifications. The crude enzyme was extracted from the liver of 200–250 g of Wistar rats according to literature methods. The crude enzyme protein content was determined by the Bradford/method using a Bradford Protein Assay Kit (Beyotime). Forty microlitres of enzyme solution and 40 µL of sample solution were added to a 96-well plate. The solution was then incubated at 37 °C for 20 min. One-twenty microlitres of the 4-(trifluoromethyl) benzylamine solution and 40 µL of the chromogenic agent (1 mmol/L vanillic acid, 0.5 mmol/L 4-aminoantipyrine, 4U/mL horseradish peroxidase, 0.2 M pH = 7.6 PBS constant volume) were added subsequently, and incubated at 37 °C for 90 min. The absorbance was measured at 490 nm using a microplate reader, and the inhibition rate of MAO and the IC50 value of each sample were calculated according to the formula. The control group replaced the sample solution with PBS (0.2 M, pH = 7.6), the positive control replaced the sample with the positive drug, and the blank group replaced the substrate with PBS, and each group was measured three times in parallel to average. Monoamineoxidase inhibitory effect (%)=[(AC−AB)−(AS−ASB)]/(AC−AB)×100% where AC is the absorbance of control group; AB is the absorbance of blank group; AS is the absorbance of sample group; ASB is the absorbance of sample blank group.
MAO plays an important role in neurotransmitter inactivation, and MAO dysfunction is considered to be the cause of many mental and neurological diseases. MAO plays an important role in AD pathology, and the progress of AD has a close correlation with MAO activity[35]^,[36]. All the synthesised compounds were evaluated for their MAO inhibitory activity in the way of Holt[26] by references. […] The MAO used in the experiment was self-made.

AChE from electric eel = AChE from electric eel (Electrophorus electricus, UniProt O42275); conditions: read-out: IC50 value AChE inhibitory activity, mean ± SD (n = 3)
Chain of AChE from electric eel (O42275 24-633): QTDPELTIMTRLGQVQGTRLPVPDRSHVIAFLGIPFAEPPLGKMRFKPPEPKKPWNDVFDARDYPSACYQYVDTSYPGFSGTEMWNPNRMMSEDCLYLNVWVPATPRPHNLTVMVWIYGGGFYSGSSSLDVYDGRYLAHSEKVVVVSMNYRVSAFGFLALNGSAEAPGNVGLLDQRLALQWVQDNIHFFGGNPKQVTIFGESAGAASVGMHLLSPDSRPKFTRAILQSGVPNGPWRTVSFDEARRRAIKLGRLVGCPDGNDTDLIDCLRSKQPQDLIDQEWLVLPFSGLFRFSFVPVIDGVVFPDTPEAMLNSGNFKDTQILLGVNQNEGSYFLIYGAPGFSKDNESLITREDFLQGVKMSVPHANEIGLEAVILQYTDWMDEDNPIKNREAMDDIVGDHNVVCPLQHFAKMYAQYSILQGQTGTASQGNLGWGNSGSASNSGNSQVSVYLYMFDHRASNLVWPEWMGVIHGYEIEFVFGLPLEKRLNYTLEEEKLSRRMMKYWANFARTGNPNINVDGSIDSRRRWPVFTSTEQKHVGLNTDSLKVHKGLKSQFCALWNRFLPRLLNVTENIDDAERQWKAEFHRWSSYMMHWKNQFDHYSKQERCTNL
Protocol: as §1

| Structure (SMILES) | FRAP value Antioxidant activity [1] [mmol/g] | IC50 (BuChE from horse serum) [µM] | IC50 (MAO-B) [µM] | IC50 (AChE from electric eel) [µM] | selectivity BuChE over AChE (in words) (BuChE from horse serum; BuChE vs AChE inhibition) |
| --- | --- | --- | --- | --- | --- |
| O=C1O[C@H]([C@@H](O)CO)C(O)=C1O [Ascorbic Acid, reference compound] | 3.79 ± 0.08 | – | – | – | – |
| O=c1oc2cc(O)ccc2cc1-c1ccc(O)cc1 [Compound 4] | 7.73 ± 0.12 | 34.7 ± 1.87 | > 700 | – | – |
| O=c1oc2ccccc2cc1-c1ccc(O)cc1 [Compound 1] | 0.51 ± 0.09 | 44.8 ± 2.35 | > 700 | 78.5 ± 2.84 | – |
| O=c1oc2cc(O)ccc2cc1-c1ccccc1 [Compound 5] | 0.42 ± 0.01 | 14.4 ± 1.94 | > 700 | – | selective BuChE inhibitory activity |
| COc1ccc2cc(-c3ccc(O)cc3)c(=O)oc2c1 [Compound 13] | 0.61 ± 0.11 | 70.7 ± 5.75 | > 700 | 42.4 ± 3.16 | – |
| COc1ccc(-c2cc3ccc(O)cc3oc2=O)cc1 [Compound 9] | 0.67 ± 0.04 | 30.1 ± 3.06 | > 700 | – | – |

From paper PMC6374920, “Synthesis and biological evaluation of 3-arylcoumarins as potential anti-Alzheimer's disease agents” (Journal of Enzyme Inhibition and Medicinal Chemistry, 2019)
